Literature values in patent US11053214B2, “Compositions and methods related to pyridinoylpiperidine 5-HT1F agonists” (COLUCID PHARMACEUTICALS, INC., priority 2016, dated 2021).

Assays:
[1] = system: rabbit saphenous vein; conditions: concentrations up to 0.1 mM
[2] = system: other 5-HT1 receptor subtypes
[3] = system: migraine; conditions: early clinical proof-of-concept study

| Compound | constriction of rabbit saphenous vein [1] | affinity higher for 5-HT1F receptors than for other 5-HT1 receptor subtypes [2] | efficacy in the acute treatment of migraine [3] |
| --- | --- | --- | --- |
| CN1CCC(C(=O)c2cccc(NC(=O)c3c(F)cc(F)cc3F)n2)CC1.O=C(O)CCC(=O)O [Compound I, hemisuccinate salt of 2,4,6-trifluoro-N-[6-(1-methyl-piperidine-4-carbonyl)-pyridin-2-yl]-benzamide] | did not constrict | more than 450 fold |  |
| CN1CCC(c2c[nH]c3ccc(NC(=O)c4ccc(F)cc4)cc23)CC1 [LY334370] |  |  | proved effective |
